Measurements: ChEMBL document CHEMBL1201862, “PubChem BioAssay data set” (2004)
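Assay format: 96-well plates, 48-hour exposure. GI50 is the concentration that inhibits growth by half.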 Calls of active or inactive are those of the source. No stated cut-off is given here; in the data, active = GI50 up to about 1.1 µM and inactive = higher.

How the values were obtained:
Experiment in all cases: growth of human tumour cells (NCI), 48 h
[1] = tested on: U-251
[2] = tested on: MDA-MB-435
[3] = tested on: IGROV-1
[4] = tested on: UACC-62
[5] = tested on: SF-295
[6] = tested on: TK-10
[7] = tested on: SNB-75
[8] = tested on: HL-60
[9] = tested on: SR
[10] = tested on: CAKI-1
[11] = tested on: SK-MEL-28
[12] = tested on: OVCAR-8
[13] = tested on: PC-3
[14] = tested on: NCI-H460
[15] = tested on: MOLT-4
[16] = tested on: SN12C
[17] = tested on: SF-268
[18] = tested on: SK-OV-3
[19] = tested on: HCC 2998

Measured: GI50

O=C(O)c1c(-c2nccc3ccccc23)[nH]c(-c2ccccc2)c1S(=O)(=O)O
inactive: [1] > 100 µM | [2] > 100 µM | [3] > 100 µM | [4] > 100 µM | [5] > 100 µM | [6] > 100 µM | [7] > 100 µM | [8] 41.8 µM | [9] > 100 µM | [10] > 100 µM | [11] > 100 µM | [12] > 100 µM | [13] > 100 µM | [14] > 100 µM | [15] 47.6 µM | [16] > 100 µM | [17] > 100 µM | [18] > 100 µM

CN(C)CCOc1ccc(-c2c(Oc3ccccc3)c(=O)oc3ccccc23)cc1
inactive: [1] 4.86 µM | [2] 4.89 µM | [3] 10.7 µM | [4] 13.3 µM | [5] 4.42 µM | [6] 13.6 µM | [7] 9.59 µM | [9] 2.83 µM | [19] 6.62 µM | [10] 22.3 µM | [11] 12.4 µM | [12] 15.6 µM | [13] 9.93 µM | [14] 13.5 µM | [15] 4.13 µM | [16] 14 µM | [17] 12.8 µM

C=C(C)c1nc(C#N)c(N)o1
inactive: [1] > 100 µM | [2] > 100 µM | [3] 36.3 µM | [5] > 100 µM | [6] > 100 µM | [9] > 100 µM | [19] > 100 µM | [10] > 100 µM | [11] > 100 µM | [12] > 100 µM | [13] > 100 µM | [14] > 100 µM | [15] > 100 µM | [16] > 100 µM | [17] > 100 µM | [18] > 100 µM

COC(=O)[C@H](C)N(C)C(=O)[C@H](C)N1[C@@H](c2ccccc2)COC1(C)C
inactive: [1] > 100 µM | [2] > 100 µM | [3] > 100 µM | [4] > 100 µM | [5] > 100 µM | [6] > 100 µM | [7] 92.7 µM | [8] > 100 µM | [9] > 100 µM | [10] > 100 µM | [11] > 100 µM | [12] > 100 µM | [13] > 100 µM | [14] > 100 µM | [15] > 100 µM | [17] > 100 µM | [18] > 100 µM

COc1ccc2c(c1)C1c3ccccc3CCN1CCC2 (configuration not stated)
inactive: [1] 32.6 µM | [2] 19.9 µM | [3] 56.6 µM | [4] 23.7 µM | [5] 23.8 µM | [6] > 100 µM | [7] 19.3 µM | [9] 32.2 µM | [19] 23.4 µM | [10] > 100 µM | [11] 74 µM | [12] 54.5 µM | [13] 29.2 µM | [15] 35.6 µM | [16] 71.1 µM | [17] 56.6 µM | [18] 36.6 µM

CC(C(=O)NCNC(=O)c1ccccc1)C(=O)NCc1ccccc1 (configuration not stated)
inactive: [1] > 100 µM | [2] > 100 µM | [3] > 100 µM | [4] > 100 µM | [5] > 100 µM | [6] > 100 µM | [7] > 100 µM | [8] > 100 µM | [9] > 100 µM | [10] > 100 µM | [12] > 100 µM | [13] > 100 µM | [14] > 100 µM | [15] > 100 µM | [16] > 100 µM | [17] > 100 µM | [18] > 100 µM
